Results taken from patent US20250268898A1, “METHODS OF TREATING SYNOVIAL SARCOMA PATHOGENESIS BY SUMO2 INHIBITION” (Sanford Burnham Prebys Medical Discovery Institute, priority 2024, published 2025).
“Also recorded” adds a separate entry of the source.

Columns and labels:
12273/99 cells = assay: Colony-forming assay (crystal violet); type: cell-based, human; conditions: Compound 1 titration series
HS-SY-II and SYO1 cells = assay: Total RNA sequencing, Compound 1 vs DMSO; type: cell-based, human
Procedure: To comprehensively interrogate the transcriptomic changes occurring in synovial sarcoma cells, HS-SY-II and SYO1 cells were cultured in media containing DMSO and media containing Compound 1 and subjected to total RNA sequencing. HS-SY-II and SYO1 cells were contacted with either Compound 1 at concentrations of between about 25 nM and about 100 nM, or DMSO for 48 hours. The cell suspensions were pelleted, and RNA was extracted with varying concentrations. TRIzol Reagent was used to extract total RNA from SYO1, and HS-SY-II cell pellets, and strands were synthesized using Protoscript II (NEB) with poly A selection. qPCR was performed using TaqMan Gene Expression Master Mix and FAM probes for SUMO2, HPRT, and GAPDH. Paired-end (2×100 bp) sequencing was performed on the NovaSeq 6000 Sequencing System. Data Processing and QC was completed using FastQC and QC summarization was done by MultiQC. Mapping to human genome hg38 v84 was done using STAR sequence aligner, and expression was estimated using RSEM. DESeq2 was used for differential expression analysis, and IPA algorithm was used in evaluation of upstream pathway regulators.
The RNA-seq reads were analyzed for each sample to the human reference genome GRCh38 using STAR aligner. Expression estimation was conducted using RSEM followed by differential expression calling using DESeq2. For target genes of interest in both HS-SY-II and SYO1, a total of 960 differentially expressed target genes of interest (DEGs) were analyzed using […] (FIG. 4A).
Upregulation of target genes of interest activated by the chimeric SS18-SSX fusion protein in DMSO media and in media containing Compound 1 were mapped with size and […] (FDR) quantified, based on […] (NES) values (FIG. 4D). Expression of various target genes of interest, upregulation, and downregulation by SS18-SSX fusion genomes, were measured in contact with varying concentrations of Compound 1 (FIG. 4E). Heat maps were created mapping the various target genes of interest cultured in media containing only DMSO, compared to media containing Compound 1, for multiple samples (FIG. 4F-4G). Enrichment scores were calculated using gene set enrichment analysis for HS-SY-II cells in contact with DMSO and varying concentrations of Compound 1 for target genes of interest (FIG. 4H). Additional experiments comparing gene expression differences due to DMSO or Compound 1 on SYO-II and HS-SY-II cells were performed. Not only were SS18-SSX-regulated genes affected by Compound 1 treatment, but other genes also impacted included the HOX genes: HOXC6, HOXA10 as well as SRSF1 and TYMS. (FIG. 4I).

Aska-SS cells = assay: CellTiter-Glo viability, 2D and 3D cultures; type: cell-based; conditions: over 2, 3, and 4 days
Procedure: (§1) To investigate whether the reduction of proliferation by Compound 1 was due to apoptosis and necrosis in synovial sarcoma cell lines, flow cytometric analyses were performed with cells treated with Compound 1 and untreated cells stained with Annexin V-FITC apoptosis marker, as well as Propidium Iodide necrosis marker for cells in media containing Compound 1 and media only containing DMSO. The proliferation assay was performed using Cell Titer Glo Luminescent Cell Viability Assay (Promega). Cell numbers were optimized for 384-well plate for each cell line. SUMO2 inhibitors including Compound 1 were dissolved in DMSO and echo dotted onto a 384-well plate in varying concentrations, with the final concentration of DMSO at about 0.08% in each well. About 25 μL of cell suspension, a concentration of about 50,000 cells/mL were seeded in each well of a 384-well plate. […] Luminescence was recorded with a plate reader (BMG FLUOStar). The EC50 values were calculated by Graphpad Prism software. Apoptosis was quantified by flow cytometry using Annexin V-FITC kit from BD Biosciences. […] The samples were then analyzed by flow cytometry using Fortessa along with FlowJo analysis software. Cell lines analyzed were HS-SY-II (left) and SYO1 (right) (FIG. 3G). […]

HS-SY-II cells = assay: Colony-forming assay (crystal violet); type: cell-based, human; conditions: Compound 1 titration series
SYO1 cells [1] = assay: CellTiter-Glo viability, 2D and 3D cultures; type: cell-based, human; conditions: over 2, 3, and 4 days
Procedure: as §1

SYO1 flank tumors = assay: Flank tumor xenograft in nude mice; type: in vivo
Procedure: (§2) To determine the antitumor activity of Compound 1 in vivo, either Aska-SS cells (harboring the SS18-SSX1 fusion) or SYO1 cells (harboring the SS18-SSX2 fusion) were injected into the flanks of nude mice. When tumors became palpable, mice were treated with 25 mg/kg of Compound 1 or vehicle.
(§3) Flank tumors were harvested, sectioned, and stained with hematoxylin and eosin and analyzed with IHC for tumoricidal markers.

Aska-SS flank tumors = assay: Flank tumor xenograft in nude mice; type: in vivo
Procedure: as §2, §3

H2AK119ub [2] = assay: ChIP-sequencing of H2AK119ub; type: cell-based, human
SS18-SSX fusion = assay: Spike-in normalized CUT&RUN of SS18-SSX chromatin occupancy; type: cell-based, human
Procedure: Subsequent studies sought to determine the mechanism behind Compound 1 treatment and the observed attenuation of SS18-SSX expression activity. Initial studies utilizing Cleavage Under Targets & Release Using Nuclease (CUT&RUN) focused on determining whether Compound 1 affects the chromatin occupancy of the SS18-SSX fusion protein. […] Since increased H2AK119ub deposition has been linked to the pathogenic activity of the SS18-SSX fusions, H2AK119 ubiquitination was assessed in Compound 1-treated cells.

[3] = target: T1, Sumo-Activating Enzyme 1 (SAE1) or Sumo-Activating Enzyme 2 (SAE2) (Homo sapiens, UniProt Q9UBE0+Q9UBT2); assay: Interruption of the SUMO cycle (SAE inhibition); conditions: E1 Ligase Activation step
T1 sequence (Q9UBE0 1-346): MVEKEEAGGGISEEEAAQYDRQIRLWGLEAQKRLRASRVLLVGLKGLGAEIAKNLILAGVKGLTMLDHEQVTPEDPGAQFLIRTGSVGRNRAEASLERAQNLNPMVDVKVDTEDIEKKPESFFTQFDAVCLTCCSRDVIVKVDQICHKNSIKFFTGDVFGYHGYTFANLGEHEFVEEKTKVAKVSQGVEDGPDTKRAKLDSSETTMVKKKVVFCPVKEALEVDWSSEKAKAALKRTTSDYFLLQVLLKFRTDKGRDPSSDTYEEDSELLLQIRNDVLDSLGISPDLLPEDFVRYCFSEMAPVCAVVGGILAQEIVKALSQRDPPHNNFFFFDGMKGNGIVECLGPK
T1 sequence (Q9UBT2 1-640): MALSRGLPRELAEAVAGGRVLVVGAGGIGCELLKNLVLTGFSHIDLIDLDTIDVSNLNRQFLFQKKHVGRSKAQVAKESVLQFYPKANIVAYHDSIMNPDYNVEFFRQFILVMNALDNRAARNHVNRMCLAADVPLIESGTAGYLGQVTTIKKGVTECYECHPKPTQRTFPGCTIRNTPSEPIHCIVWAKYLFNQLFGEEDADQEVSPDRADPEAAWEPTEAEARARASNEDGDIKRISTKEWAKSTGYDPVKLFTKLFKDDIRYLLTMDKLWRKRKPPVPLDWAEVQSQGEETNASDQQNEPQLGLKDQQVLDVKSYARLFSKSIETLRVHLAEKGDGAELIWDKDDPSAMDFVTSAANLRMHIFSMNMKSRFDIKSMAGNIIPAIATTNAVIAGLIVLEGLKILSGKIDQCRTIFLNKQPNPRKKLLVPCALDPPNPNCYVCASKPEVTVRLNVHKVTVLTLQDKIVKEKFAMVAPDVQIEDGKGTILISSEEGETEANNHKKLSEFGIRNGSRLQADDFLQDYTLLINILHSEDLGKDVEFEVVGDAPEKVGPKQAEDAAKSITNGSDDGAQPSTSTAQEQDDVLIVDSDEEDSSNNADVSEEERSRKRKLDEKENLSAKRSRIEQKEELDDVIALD

SS18-SSX1 protein = assay: Western blot for SS18-SSX fusion protein levels; type: cell-based, human
Procedure: shRNAs targeting SUMO2 were cloned into a tetracycline-inducible plasmid and expressed in HS-SYII cells. Small hairpin RNAs (shRNAs) for SUMO2 were cloned into the all-in-one-Tet vector and packaged into lentivirus using pMD and pPax2. A cell suspension containing about 300,000 HS-SY-II and SYO1 cells were seeded into six-well culture plates overnight for about 12-14 hours. Transfections were performed with Lipofectamine 2000 reagent. At about 48 hours after transfection, media was changed and puromycin selected for about 2 days. After selection, cells were subjected to a previously determined amount of doxycycline, about 4.5 μg/ml, for about 48 hours. Cells were harvested for qPCR quantification and western blot analysis.
The effect of Compound 1 was compared to the effect of SUMO2 knockdown by shRNA.

SYO1 cells [4] = assay: Colony-forming assay (crystal violet); type: cell-based, human; conditions: Compound 1 titration series
Procedure: Further testing of Compound 1 was performed on 2D and 3D cultures for SYO1 and Aska-SS cell lines to determine whether these culture conditions resist Compound 1 treatment.

H2AK119ub [5] = assay: H2AK119ub immunoblotting; type: cell-based, human
[6] = 25 mg/kg, 3 intraperitoneal injections a week for 5 weeks, vs vehicle
[7] = Ki-67 staining of tumor sections, vs vehicle-treated tumors
[8] = harvested flank tumors, vs vehicle-treated tumors

## Cc1sc(C(=O)c2cncnc2N[C@@H]2C[C@H](COS(N)(=O)=O)[C@@H](O)C2)cc1[C@@H]1NCCc2ccc(Cl)cc21 [Compound 1]
12273/99 cells
  colony formation: dramatic and dose-dependent reduction in colony formation
HS-SY-II and SYO1 cells
  expression of GADD45B: increased expression (de-repression); also recorded: increase in its expression
  expression of HOXA10 and SOX8: reduced expression
HS-SY-II and SYO1 cells; HS-SY-II and SYO1, vs DMSO
  expression of key cancer-associated genes upregulated by the SySa fusion (CDX2, HOXA10, SUZ12, TYMS, AURKB, HOXC10, SMC2): downregulated
HS-SY-II and SYO1 cells; SYO1 and HS-SY-II cells, vs DMSO
  expression of HOXC6, HOXA10, SRSF1 and TYMS: impacted
HS-SY-II and SYO1 cells; SYO-II and HS-SY-II cells, vs DMSO
  expression of SS18-SSX-regulated genes: affected
Aska-SS cells
  viability as measured by CellTiter-Glo: progressive and marked decrease in viability; also recorded: affected in a Compound 1 concentration-dependent manner
HS-SY-II cells
  colony formation: dramatic and dose-dependent reduction in colony formation
SYO1 cells [1]
  viability as measured by CellTiter-Glo: progressive and marked decrease in viability; also recorded: affected in a Compound 1 concentration-dependent manner
SYO1 flank tumors; [6]
  tumor growth: reduction of tumor growth
  tumor volumes: significantly reduced
  tumor weights: significantly reduced
SYO1 flank tumors; [7]
  decrease in Ki67 positivity: ~60%
SYO1 flank tumors; [8]
  number of cells per unit area (tumor cellularity, hematoxylin and eosin): marked reduction
Aska-SS flank tumors; [6]
  tumor growth: reduction of tumor growth
  tumor volumes: significantly reduced
  tumor weights: significantly reduced
Aska-SS flank tumors; [7]
  decrease in Ki67 positivity: ~60%
Aska-SS flank tumors; [8]
  number of cells per unit area (tumor cellularity, hematoxylin and eosin): marked reduction
H2AK119ub [2]
  H2AK119ub at GADD45B: reduced H2AK119ub
H2AK119ub [2]; SYO1 cells, versus DMSO-treated
  reduction of genome-wide H2AK119ub levels (FRiP): 1.53 fold
H2AK119ub [2]; compared to DMSO-treated cells
  H2AK119ub genome-wide: substantial reduction
SS18-SSX fusion
  SS18-SSX fusion occupancy at SS18-SSX-repressed target GADD45B: diminished SS18-SSX fusion occupancy; also recorded: decrease of SS18-SSX occupation of this gene
  SS18-SSX occupancy at SS18-SSX-activated targets HOXA10 and SOX8: lost SS18-SSX occupancy; also recorded: decrease of SS18-SSX occupation
SS18-SSX fusion; Compound 1-treated compared to vehicle-treated arms
  SS18-SSX2 fusion genomic occupancy: substantial decrease
SS18-SSX fusion; SYO1 cells, compared to DMSO treated cells
  reduction in genome-wide chromatin binding signal of the SS18-SSX fusion (FRiP): 1.87 fold
SS18-SSX fusion; maximum signal centered around the transcription start site
  fusion-binding signal at synovial sarcoma target genes (meta-analysis): reduction in the fusion binding
[3]
  interruption of the SUMO cycle: interrupt the SUMO cycle at the E1 Ligase Activation step
SS18-SSX1 protein; HS-SY-II cell line
  levels of SS18-SSX1 protein: reduction in the levels
SS18-SSX1 protein; SYO1 cell lines
  levels of SS18-SSX1 fusion: reduction in the levels
SYO1 cells [4]
  colony formation: dramatic and dose-dependent reduction in colony formation
H2AK119ub [5]; 1273/99 cell line
  H2AK119ub by immunoblotting: marked reduction
H2AK119ub [5]; Aska cell line
  H2AK119ub by immunoblotting: marked reduction
H2AK119ub [5]; HS-SY-II cell line
  H2AK119ub by immunoblotting: marked reduction
H2AK119ub [5]; SYO1 cell line
  H2AK119ub by immunoblotting: marked reduction
